From patent US8039482B2, “Composition of solifenacin or salt thereof for use in solid formulation” (Astellas Pharma Inc., priority 2004, dated 2011)
Where two headings read alike, the source gives them in different places.

Columns and labels:
[1] = type: physicochemical; conditions: for related substances (individual maximum values): 40° C. and 75% RH
Procedure: The amounts of degradation products over time under storage were measured by high-performance liquid chromatography. The maximum amount of the individual degradation products is shown. […] Therefore, the main cause of the degradation of the active pharmaceutical ingredient over time was presumably amorphous solifenacin succinate generated in the manufacturing process of the formulation.
Results of the stability of crystalline product and amorphous product of solifenacin succinate • Storage conditions: 40° C. and 75% RH • Packaging form: glass vial • Test items: related substances (individual maximum values)

muscarine M3 receptors = muscarine M3 receptors (Homo sapiens, UniProt P20309); conditions: reported in patent reference 1; cited from earlier work
Chain of muscarine M3 receptors (P20309 whole entry): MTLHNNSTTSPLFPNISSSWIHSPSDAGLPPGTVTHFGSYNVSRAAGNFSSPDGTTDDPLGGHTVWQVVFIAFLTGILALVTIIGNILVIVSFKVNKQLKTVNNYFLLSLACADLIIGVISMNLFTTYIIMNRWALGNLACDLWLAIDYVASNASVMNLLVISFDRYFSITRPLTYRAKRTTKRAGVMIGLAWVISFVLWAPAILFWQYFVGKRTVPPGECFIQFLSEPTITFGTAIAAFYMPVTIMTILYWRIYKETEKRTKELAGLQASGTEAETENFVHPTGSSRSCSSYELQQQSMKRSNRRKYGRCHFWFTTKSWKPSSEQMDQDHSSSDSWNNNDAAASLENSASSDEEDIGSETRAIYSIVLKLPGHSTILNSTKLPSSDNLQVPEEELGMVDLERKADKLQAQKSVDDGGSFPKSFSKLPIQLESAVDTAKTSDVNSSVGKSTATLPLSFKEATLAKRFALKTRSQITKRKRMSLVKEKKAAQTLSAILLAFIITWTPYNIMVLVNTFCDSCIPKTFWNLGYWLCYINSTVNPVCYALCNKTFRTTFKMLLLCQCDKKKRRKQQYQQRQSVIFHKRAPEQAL

Row | Compound | stability under storage (in words) [1] | related substances (individual maximum values) ([1]; Open glass vial, one-week later) [%] | related substances (individual maximum values) ([1]; Open glass vial, two-week later) [%] | related substances (individual maximum values) ([1]; Sealed glass vial, one-week later) [%] | related substances (individual maximum values) ([1]; Sealed glass vial, two-week later) [%] | antagonistic action against muscarine M3 receptors (in words) (muscarine M3 receptors)
1 | O=C(O[C@H]1CN2CCC1CC2)N1CCc2ccccc2[C@@H]1c1ccccc1 [Amorphous product, solifenacin succinate] | poorer than that of the crystalline product | 0.16 | 0.16 | 0.03 | 0.05 | 
2 | O=C(O[C@H]1CN2CCC1CC2)N1CCc2ccccc2[C@@H]1c1ccccc1 [solifenacin, (1R,3′R)-3′-quinuclidinyl 1-phenyl-1,2,3,4-tetrahydro-2-isoquinoline carboxylate] |  |  |  |  |  | excellent selective antagonistic action
